According to PMC9609996, “SAR Study and Molecular Mechanism Investigation of Novel Naphthoquinone-furan-2-cyanoacryloyl Hybrids with Antitumor Activity” (Pharmaceutics, 2022):
Like-named read-outs stand apart in the source and are kept apart here.

What was measured:
HeLa = test: CCK-8 anti-proliferation assay, HeLa; assay type: cell-based, human; settings: Homo sapiens, mean ± SD; for inhibition at 20 µM: read-out: Inhibition Rate (%) at 20 μM HeLa
Description: (§1) Human cervical cancer HeLa, human prostate cancer PC3, human colonic carcinoma HCT116, human lung carcinoma A549, human breast cancer MDA-MB-231, mouse melanoma B16, human ovarian cancer SKOV3, human hepatoma Hep3B, and human liver L02 cells were purchased from the Cell Bank of Shanghai Institute of Biochemistry and Cell Biology, Chinese Academy of Sciences (Shanghai, China). The HeLa, A549, B16, PC3, MDA-MB-231, HCT116, and L02 cells were cultured in Dulbecco’s modified Eagle medium (DMEM, Gibco Inc.; Gaithersburg, MD, USA). All cultures were supplied with 10% fetal bovine serum (FBS; YHSM, Beijing, China), 100 IU/mL of penicillin, and 100 μg/mL of streptomycin, and cells were incubated at 37 °C in an atmosphere of 5% CO2.
(§2) A CCK-8 kit (MCE, USA) was used to perform a CCK-8 assay. Cells were plated and grown in the 96-well plates for the indicated period (48 h) in the incubator, followed by an incubation with the CCK-8 solutions for 1–4 h. Subsequently, the absorbance (450 nm) was measured by a microplate reader. The median inhibitory concentration (IC50) was determined from the dose–response curve. Experiments were performed in a triplicate.

PC3 = test: CCK-8 anti-proliferation assay, PC3; assay type: cell-based, human; settings: Homo sapiens, mean ± SD; for inhibition at 20 µM: PC-3, 20 μM, read-out: Inhibition Rate (%) at 20 μM PC3
Description: as §1, §2

A549 = test: CCK-8 anti-proliferation assay, A549; assay type: cell-based, human; settings: Homo sapiens, mean ± SD; for inhibition at 20 µM: A549, 20 μM, read-out: Inhibition Rate (%) at 20 μM A549
Description: as §1, §2

HCT116 = test: CCK-8 anti-proliferation assay, HCT116; assay type: cell-based, human; settings: Homo sapiens, mean ± SD; for inhibition at 20 µM: HCT-116, 20 μM, read-out: Inhibition Rate (%) at 20 μM HCT116
Description: as §1, §2

[1] = tested on: four cancer cell lines (HeLa, PC3, A549, and HCT116); test: CCK-8 inhibition rates over four cancer cell lines; assay type: cell-based; settings: Homo sapiens
Description: First, the inhibition rates at 20 μM for all newly synthesized compounds were evaluated on four cancer cell lines (HeLa, PC3, A549, and HCT116) by a CCK-8 assay. […] A variety of aliphatic amine substituents were well tolerated (4e, 4f, 5c, and 8f).
as §1, §2

MDA-MB-231 = test: CCK-8 anti-proliferation assay, MDA-MB-231; assay type: cell-based, human; settings: Homo sapiens, MDA-MB-231, 48 h, mean ± SD
Description: as §1, §2

B16 = test: CCK-8 anti-proliferation assay, B16; assay type: cell-based; settings: Mus musculus, B16, 48 h, B16 mouse melanoma, mean ± SD
Description: as §1, §2

SKOV3 = test: CCK-8 anti-proliferation assay, SKOV3; assay type: cell-based; settings: Homo sapiens, SK-OV-3, 48 h, mean ± SD
Description: as §1, §2

Hep3B = test: CCK-8 anti-proliferation assay, Hep3B; assay type: cell-based, human; settings: Homo sapiens, 48 h, mean ± SD
Description: as §1, §2

L02 cells = test: CCK-8 assay on normal cells, L02; assay type: cell-based; settings: L02 human normal hepatocytes, 48 h, mean ± SD
Description: as §1, §2

[2] = tested on: various cancer cell lines; parameters: method as in PMID 23651330; settings: read-out: IC50 against various cancer cell lines; cited from earlier work
[3] = HeLa, PC3, A549, HCT116, CCK-8, read-out: inhibition rate, span over the four cancer cell lines
[4] = one or two of the four cell lines, read-out: inhibition rates against one or two types of tumor cell lines

| SMILES | inhibition at 20 µM (HeLa) | inhibition at 20 µM (PC3) | inhibition at 20 µM (A549) | inhibition at 20 µM (HCT116) | further results |
| --- | --- | --- | --- | --- | --- |
| COc1cc(-c2ccc(/C=C(\C#N)C(=O)Nc3ccccc3)o2)c(OC)c2ccccc12 [Compound 4h, (E)-2-cyano-3-(5-(1,4-dimethoxynaphthalen-2-yl)furan-2-yl)-N-phenylacrylamide] | 9.49 ± 0.16% | 19.53 ± 0.17% | 0.25 ± 0.13% | 11.5 ± 0.14% | inhibition at 20 µM [1, 3]: 0.25 to 32.4% |
| C[C@H](NC(=O)/C(C#N)=C/c1cccc(Br)n1)c1ccccc1 [WP1066, reference compound] | – | – | – | – | IC50 (HeLa; 48 h): 7.06 ± 1.17 µM; IC50 (PC3; PC-3, 48 h, 48 h): 1200 ± 30 nM; IC50 (A549; A549, 48 h, 48 h): 7.55 ± 0.06 µM; IC50 (HCT116; HCT-116, 48 h): 7.22 ± 3.14 µM; IC50 (MDA-MB-231): 8.17 ± 0.16 µM; IC50 (B16): 24.1 ± 0.7 µM; IC50 (SKOV3): 4.66 ± 0.13 µM; IC50 (Hep3B): 4.36 ± 0.05 µM; IC50 (L02 cells): 3.45 ± 0.41 µM |
| COc1cc(N2CCC(N(C)C)CC2)ccc1NC(=O)c1ccc(-c2cc(OC)c3ccccc3c2OC)o1 [Compound 8i, 5-(1,4-Dimethoxynaphthalen-2-yl)-N-(4-(4-(dimethylamino)piperidin-1-yl)-2-methoxyphenyl)furan-2-carboxamide] | 55.62 ± 0.12% | 25.11 ± 0.05% | 31.67 ± 0.07% | 47.78 ± 0.19% | inhibition at 20 µM [1, 4]: > 50% |
| COc1cc(-c2ccc(/C=C(\C#N)C(=O)NC3CC(C)(C)NC(C)(C)C3)o2)c(OC)c2ccccc12 [Compound 4e, (E)-2-cyano-3-(5-(1,4-dimethoxynaphthalen-2-yl)furan-2-yl)-N-(2,2,6,6-tetramethylpiperidin-4-yl)acrylamide] | 59.1 ± 0.21% | 15.8 ± 0.33% | 59.49 ± 0.34% | 40.53 ± 0.03% | inhibition at 20 µM [1, 4]: > 50% |
| COc1cc(-c2ccc(/C=C(\C#N)C(=O)NCCN3CCOCC3)o2)c(OC)c2ccccc12 [Compound 4c, (E)-2-cyano-3-(5-(1,4-dimethoxynaphthalen-2-yl)furan-2-yl)-N-(2-morpholinoethyl)acrylamide] | 24.23 ± 0.01% | 8.99 ± 0.09% | 11.25 ± 0.05% | 18.78 ± 0.04% | inhibition at 20 µM [1, 3]: 8.99 to 24.2% |
| NS(=O)(=O)c1cccc2c1C(=O)C=C(Nc1cccnc1)C2=O [Ly-5] | – | – | – | – | IC50 [2]: 500 to 1400 nM |
| O=C(NCCC(=O)N1CCOCC1)c1ccc(C2=CC(=O)c3ccccc3C2=O)o1 [Compound 9c, 5-(1,4-Dioxo-1,4-dihydronaphthalen-2-yl)-N-(3-morpholino-3-oxopropyl)furan-2-carboxamide] | 5.91 ± 0.29% | 1.45 ± 0.86% | 15.1 ± 0.31% | 37.21 ± 0.08% | – |
